Test results from patent US20220031723A1, “POWDERED FOOD COMPOSITION COMPRISING ERIOCITRIN” (EUROMED, S.A., priority 2020, published 2022).

How the values were obtained:
[1] = Occurrence of plasma and urine metabolites in volunteers after consuming lemon or orange extract; format: in vivo, human
Text: Through a targeted metabolomic strategy, a total of 17 metabolites were tentatively identified (Table 3). No hesperidin or eriocitrin-derived metabolites were detected in any volunteer at baseline. All the identified metabolites were detected at least in one volunteer, independently of the extract consumed, except for the metabolites M9 (eriodictyol sulfoglucuronide) and M11 (hesperetin sulfoglucuronide), which only were detected after consuming lemon and orange extract, respectively (Table 3). These representative EICs illustrate the metabolites identified in urine (F3 fraction) after consuming lemon (FIG. 3A) and orange (FIG. 3B) extracts, and plasma after consuming lemon (FIG. 3C) and orange (FIG. 3D) extracts. From the 17 metabolites, 16 were detected after consuming lemon extract (except M11), and 15 after consuming orange extract (except M9 and M10 in urine, and M9 and M12 in plasma) (Table 3).

[2] = Urinary excretion of quantified metabolites in collected fractions after extract intake; format: in vivo, human; conditions: mean ± SD; for Metabolite quantified in urine fraction F1: fraction 0 to 4 h; for Metabolite quantified in urine fraction F2: fraction 4 to 8 h; for Metabolite quantified in urine fraction F3: fraction 8 to 10 h; for Metabolite quantified in urine fraction F4: fraction collected at 24 h (10-24 h); for Metabolite quantified in urine, Total F (24 h): sum of fractions F1-F4
Protocol: Table 4 and Table 5 show the urinary excretion of quantified metabolites at the different fractions collected, i.e., 0-4 h (F1), 4-8 h (F2), 8-10 h (F3), and 10-24 h (F4), after extracts intake.

Compound: COc1ccc([C@@H]2CC(=O)c3c(O)cc(O)cc3O2)cc1O [M17, Hesperetin]
- Occurrence Plasma LE (number of volunteers in whom metabolite was detected) ([1]; human, in vivo): 8
- Occurrence Plasma LE (second column so headed; number of volunteers in whom metabolite was detected) ([1]; human, in vivo): 3
- Occurrence Urine LE (number of volunteers in whom metabolite was detected) ([1]; human, in vivo): 5
- Occurrence Urine LE (second column so headed; number of volunteers in whom metabolite was detected) ([1]; human, in vivo): 8

Compound: O=C1C[C@@H](c2ccc(O)cc2)Oc2cc(O[C@@H]3O[C@H](C(=O)O)[C@@H](O)[C@H](O)[C@H]3O)cc(O)c21 [M3, Naringenin 7-O-glucuronide]
- Occurrence Plasma LE (number of volunteers in whom metabolite was detected) ([1]; human, in vivo): 16
- Occurrence Plasma LE (second column so headed; number of volunteers in whom metabolite was detected) ([1]; human, in vivo): 14
- Occurrence Urine LE (number of volunteers in whom metabolite was detected) ([1]; human, in vivo): 16
- Occurrence Urine LE (second column so headed; number of volunteers in whom metabolite was detected) ([1]; human, in vivo): 16
- Metabolite quantified in urine fraction F1 ([2]; after consuming lemon extract): 1.0 ± 0.7 μg/mg creatinine
- Metabolite quantified in urine fraction F2 ([2]; after consuming lemon extract): 2.6 ± 4.0 μg/mg creatinine
- Metabolite quantified in urine fraction F3 ([2]; after consuming lemon extract): 1.7 ± 1.9 μg/mg creatinine
- Metabolite quantified in urine fraction F4 ([2]; after consuming lemon extract): 0.3 ± 0.3 μg/mg creatinine
- Metabolite quantified in urine, Total F (24 h) ([2]; after consuming lemon extract): 5.7 ± 6.9 μg/mg creatinine
- Metabolite quantified in urine fraction F1 ([2]; after consuming orange extract): 0.1 ± 0.1 μg/mg creatinine
- Metabolite quantified in urine fraction F2 ([2]; after consuming orange extract): 0.2 ± 0.6 μg/mg creatinine
- Metabolite quantified in urine fraction F3 ([2]; after consuming orange extract): 0.2 ± 0.2 μg/mg creatinine
- Metabolite quantified in urine fraction F4 ([2]; after consuming orange extract): 0.2 ± 0.3 μg/mg creatinine
- Metabolite quantified in urine, Total F (24 h) ([2]; after consuming orange extract): 0.7 ± 1.5 μg/mg creatinine

Compound: COc1cc([C@@H]2CC(=O)c3c(O)cc(O)cc3O2)ccc1O [M16, Homoeriodictyol]
- Occurrence Plasma LE (number of volunteers in whom metabolite was detected) ([1]; human, in vivo): 15
- Occurrence Plasma LE (second column so headed; number of volunteers in whom metabolite was detected) ([1]; human, in vivo): 1
- Occurrence Urine LE (number of volunteers in whom metabolite was detected) ([1]; human, in vivo): 12
- Occurrence Urine LE (second column so headed; number of volunteers in whom metabolite was detected) ([1]; human, in vivo): 1

Compound: Eriodictyol sulfate [M13]
- Occurrence Plasma LE (number of volunteers in whom metabolite was detected) ([1]; human, in vivo): 16
- Occurrence Plasma LE (second column so headed; number of volunteers in whom metabolite was detected) ([1]; human, in vivo): 10
- Occurrence Urine LE (number of volunteers in whom metabolite was detected) ([1]; human, in vivo): 16
- Occurrence Urine LE (second column so headed; number of volunteers in whom metabolite was detected) ([1]; human, in vivo): 12
- Metabolite quantified in urine fraction F1 ([2]; after consuming lemon extract): 4.6 ± 5.0 μg/mg creatinine
- Metabolite quantified in urine fraction F2 ([2]; after consuming lemon extract): 14.6 ± 17.3 μg/mg creatinine
- Metabolite quantified in urine fraction F3 ([2]; after consuming lemon extract): 11.9 ± 12.6 μg/mg creatinine
- Metabolite quantified in urine fraction F4 ([2]; after consuming lemon extract): 1.5 ± 1.5 μg/mg creatinine
- Metabolite quantified in urine, Total F (24 h) ([2]; after consuming lemon extract): 32.6 ± 36.5 μg/mg creatinine
- Metabolite quantified in urine fraction F1 ([2]; after consuming orange extract): 0.02 ± 0.01 μg/mg creatinine
- Metabolite quantified in urine fraction F2 ([2]; after consuming orange extract): 0.1 ± 0.1 μg/mg creatinine
- Metabolite quantified in urine fraction F3 ([2]; after consuming orange extract): 0.2 ± 0.4 μg/mg creatinine
- Metabolite quantified in urine fraction F4 ([2]; after consuming orange extract): 0.3 ± 0.4 μg/mg creatinine
- Metabolite quantified in urine, Total F (24 h) ([2]; after consuming orange extract): 0.6 ± 0.9 μg/mg creatinine

Compound: Homoeriodictyol glucuronide [M6]
- Occurrence Plasma LE (number of volunteers in whom metabolite was detected) ([1]; human, in vivo): 16
- Occurrence Plasma LE (second column so headed; number of volunteers in whom metabolite was detected) ([1]; human, in vivo): 3
- Occurrence Urine LE (number of volunteers in whom metabolite was detected) ([1]; human, in vivo): 16
- Occurrence Urine LE (second column so headed; number of volunteers in whom metabolite was detected) ([1]; human, in vivo): 3
- Metabolite quantified in urine fraction F1 ([2]; after consuming lemon extract): 13.9 ± 16.2 μg/mg creatinine
- Metabolite quantified in urine fraction F2 ([2]; after consuming lemon extract): 48.1 ± 90.0 μg/mg creatinine
- Metabolite quantified in urine fraction F3 ([2]; after consuming lemon extract): 37.2 ± 56.9 μg/mg creatinine
- Metabolite quantified in urine fraction F4 ([2]; after consuming lemon extract): 6.8 ± 8.0 μg/mg creatinine
- Metabolite quantified in urine, Total F (24 h) ([2]; after consuming lemon extract): 106 ± 171 μg/mg creatinine

Compound: O=C1C[C@@H](c2ccc(O[C@@H]3O[C@H](C(=O)O)[C@@H](O)[C@H](O)[C@H]3O)cc2)Oc2cc(O)cc(O)c21 [M5, Naringenin 4'-O-glucuronide]
- Occurrence Plasma LE (number of volunteers in whom metabolite was detected) ([1]; plasma, after consuming lemon extract (LE), n = 16 volunteers): 16
- Occurrence Plasma LE (second column so headed; number of volunteers in whom metabolite was detected) ([1]; plasma, fourth occurrence column, probably orange extract (OE), n = 16 volunteers): 14
- Occurrence Urine LE (number of volunteers in whom metabolite was detected) ([1]; urine, after consuming lemon extract (LE), n = 16 volunteers): 16
- Occurrence Urine LE (second column so headed; number of volunteers in whom metabolite was detected) ([1]; urine, third occurrence column, probably orange extract (OE), n = 16 volunteers): 16
- Metabolite quantified in urine fraction F1 ([2]; after consuming lemon extract): 0.8 ± 0.5 μg/mg creatinine
- Metabolite quantified in urine fraction F2 ([2]; after consuming lemon extract): 1.7 ± 2.7 μg/mg creatinine
- Metabolite quantified in urine fraction F3 ([2]; after consuming lemon extract): 1.3 ± 1.5 μg/mg creatinine
- Metabolite quantified in urine fraction F4 ([2]; after consuming lemon extract): 0.4 ± 0.3 μg/mg creatinine
- Metabolite quantified in urine, Total F (24 h) ([2]; after consuming lemon extract): 4.2 ± 5.0 μg/mg creatinine
- Metabolite quantified in urine fraction F1 ([2]; after consuming orange extract): 0.1 ± 0.1 μg/mg creatinine
- Metabolite quantified in urine fraction F2 ([2]; after consuming orange extract): 0.3 ± 0.5 μg/mg creatinine
- Metabolite quantified in urine fraction F3 ([2]; after consuming orange extract): 0.3 ± 0.4 μg/mg creatinine
- Metabolite quantified in urine fraction F4 ([2]; after consuming orange extract): 0.3 ± 0.5 μg/mg creatinine
- Metabolite quantified in urine, Total F (24 h) ([2]; after consuming orange extract): 1.0 ± 1.5 μg/mg creatinine

Compound: Hesperetin sulfoglucuronide [M11]
- Occurrence Plasma LE (number of volunteers in whom metabolite was detected) ([1]; human, in vivo): 0
- Occurrence Plasma LE (second column so headed; number of volunteers in whom metabolite was detected) ([1]; human, in vivo): 8
- Occurrence Urine LE (number of volunteers in whom metabolite was detected) ([1]; human, in vivo): 0
- Occurrence Urine LE (second column so headed; number of volunteers in whom metabolite was detected) ([1]; human, in vivo): 7

Compound: Eriodictyol sulfoglucuronide [M9]
- Occurrence Plasma LE (number of volunteers in whom metabolite was detected) ([1]; human, in vivo): 15
- Occurrence Plasma LE (second column so headed; number of volunteers in whom metabolite was detected) ([1]; human, in vivo): 0
- Occurrence Urine LE (number of volunteers in whom metabolite was detected) ([1]; human, in vivo): 5
- Occurrence Urine LE (second column so headed; number of volunteers in whom metabolite was detected) ([1]; human, in vivo): 0

Compound: O=C1C[C@@H](c2ccc(O)cc2)Oc2cc(O)cc(O)c21 [M15, Naringenin]
- Occurrence Plasma LE (number of volunteers in whom metabolite was detected) ([1]; human, in vivo): 6
- Occurrence Plasma LE (second column so headed; number of volunteers in whom metabolite was detected) ([1]; human, in vivo): 2
- Occurrence Urine LE (number of volunteers in whom metabolite was detected) ([1]; human, in vivo): 9
- Occurrence Urine LE (second column so headed; number of volunteers in whom metabolite was detected) ([1]; human, in vivo): 5

Compound: O=C1C[C@@H](c2ccc(O)c(O)c2)Oc2cc(O)cc(O)c21 [M12, Eriodictyol]
- Occurrence Plasma LE (number of volunteers in whom metabolite was detected) ([1]; human, in vivo): 16
- Occurrence Plasma LE (second column so headed; number of volunteers in whom metabolite was detected) ([1]; human, in vivo): 0
- Occurrence Urine LE (number of volunteers in whom metabolite was detected) ([1]; human, in vivo): 14
- Occurrence Urine LE (second column so headed; number of volunteers in whom metabolite was detected) ([1]; human, in vivo): 4
